# DBAASP
# Key:
# Assay in all cases: ≥ marks a high value that may be exact or a test limit, other limits are often not marked, values filed in µg/mL are converted to µM
# [1] = test system: Bacillus subtilis DSM 347
# Escherichia coli BL21AI = test system: Escherichia coli BL21AI
# [2] = test system: Escherichia coli DSM 10233
# [3] = test system: Micrococcus luteus ATCC 10240
# [4] = test system: Micrococcus luteus DSM 1790
# [5] = test system: Staphylococcus aureus ATCC 25023
# [6] = test system: Staphylococcus aureus BCRC 10780
# [7] = test system: Staphylococcus sp. BCRC 10451
# Streptococcus agalactiae = test system: Streptococcus agalactiae
# Vibrio alginolyticus = test system: Vibrio alginolyticus
# [8] = test system: Vibrio harveyi BCRC 13812
# Bacillus subtilis PS832 = test system: Bacillus subtilis PS832
# Escherichia coli DL7 = test system: Escherichia coli DL7
# [9] = test system: Klebsiella aerogenes ATCC 13048
# [10] = test system: Staphylococcus epidermidis ATCC 12228
# [11] = test system: Acinetobacter baumannii CCARM 12005
# [12] = test system: Acinetobacter baumannii CCARM 12035
# [13] = test system: Acinetobacter baumannii CCARM 12036
# [14] = test system: Acinetobacter baumannii CCARM 12037
# [15] = test system: Bacillus subtilis KCTC 1021
# [16] = test system: Bacillus subtilis KCTC 1022
# [17] = test system: Bacillus subtilis KCTC 3068
# [18] = test system: Escherichia coli CCARM 1229
# [19] = test system: Escherichia coli CCARM 1238
# [20] = test system: Escherichia coli KCTC 1682
# [21] = test system: Escherichia coli KCTC 2571
# [22] = test system: Escherichia coli KCTC 2593
# [23] = test system: Pseudomonas aeruginosa CCARM 2002
# [24] = test system: Pseudomonas aeruginosa CCARM 2003
# [25] = test system: Pseudomonas aeruginosa CCARM 2095
# [26] = test system: Pseudomonas aeruginosa CCARM 2163
# [27] = test system: Pseudomonas aeruginosa KCTC 1637
# [28] = test system: Pseudomonas aeruginosa KCTC 2004
# [29] = test system: Pseudomonas aeruginosa KCTC 2513
# [30] = test system: Salmonella typhimurium CCARM 8003
# [31] = test system: Salmonella typhimurium CCARM 8007
# [32] = test system: Salmonella typhimurium CCARM 8009
# [33] = test system: Salmonella typhimurium KCTC 1926
# [34] = test system: Staphylococcus aureus CCARM 3089
# [35] = test system: Staphylococcus aureus CCARM 3090
# [36] = test system: Staphylococcus aureus CCARM 3108
# [37] = test system: Staphylococcus aureus CCARM 3114
# [38] = test system: Staphylococcus aureus CCARM 3126
# [39] = test system: Staphylococcus aureus KCTC 1621
# [40] = test system: Staphylococcus aureus KCTC 1916
# [41] = test system: Staphylococcus aureus KCTC 3881
# [42] = test system: Staphylococcus epidermidis KCTC 1917
smiles,measurement,setting,value
CC[C@H](C)[C@H](NC(=O)[C@H](CCCN=C(N)N)NC(=O)[C@H](CCCN=C(N)N)NC(=O)[C@@H]1CCCN1C(=O)[C@@H]1CCCN1C(=O)[C@H](CCCN=C(N)N)NC(=O)[C@@H]1CCCN1C(=O)[C@H](CCCN=C(N)N)NC(=O)[C@@H]1CCCN1C(=O)[C@H](CC(C)C)NC(=O)[C@H](Cc1ccc(O)cc1)NC(=O)[C@@H]1CCCN1C(=O)[C@@H]1CCCN1C(=O)[C@H](CCCCN)NC(=O)[C@H](CC(=O)O)NC(=O)[C@@H](N)C(C)C)C(=O)N[C@@H](Cc1ccc(O)cc1)C(=O)N[C@@H](CC(N)=O)C(=O)O [VDKPPYLPRPRPPRRIYN],MIC,[1],≥ 55.9 µM
same,MIC,Escherichia coli BL21AI,28.6 µM
same,MIC,[2],≥ 55.9 µM
same,MIC,[3],≥ 57.3 µM
same,MIC,[4],6.98 µM
CC(C)C[C@H](NC(=O)[C@H](CCCN=C(N)N)NC(=O)[C@H](CC(C)C)NC(=O)[C@H](CC(C)C)NC(=O)[C@H](CC(C)C)NC(=O)[C@H](CC(C)C)NC(=O)[C@H](CCCCN)NC(=O)[C@H](CC(C)C)NC(=O)[C@@H](N)CCCN=C(N)N)C(N)=O [RLKLLLLRL],MIC,[5],14.1 µM
CC[C@H](C)[C@H](NC(=O)[C@H](Cc1ccccc1)NC(C)=O)C(=O)N[C@@H](Cc1ccccc1)C(=O)N[C@@H](Cc1cnc[nH]1)C(=O)N[C@H](C(=O)N[C@H](C(=O)N[C@@H](CCCCN)C(=O)NCC(=O)N[C@@H](CC(C)C)C(=O)N[C@@H](Cc1ccccc1)C(=O)N[C@@H](Cc1cnc[nH]1)C(N)=O)[C@@H](C)CC)[C@@H](C)CC [FIFHIIKGLFH],MIC,[6],4.56 µM
same,MIC,[7],≥ 72.9 µM
same,MIC,Streptococcus agalactiae,≥ 72.9 µM
same,MIC,Vibrio alginolyticus,4.56 µM
same,MIC,[8],4.56 µM
CC(C)C[C@H](NC(=O)CNC(=O)[C@H](C)NC(=O)[C@H](CCCN=C(N)N)NC(=O)[C@H](Cc1cnc[nH]1)NC(=O)[C@H](C)NC(=O)[C@@H](N)CC(=O)O)C(=O)N[C@@H](CCC(N)=O)C(=O)N[C@@H](Cc1ccccc1)C(=O)N1CCC[C@H]1C(=O)N[C@H](C(=O)NCC(=O)N[C@@H](CCCN=C(N)N)C(=O)N[C@H](C(=O)N[C@@H](Cc1cnc[nH]1)C(=O)N[C@@H](CCCN=C(N)N)C(=O)N[C@@H](CC(C)C)C(=O)N[C@@H](CC(C)C)C(=O)N[C@@H](CCCN=C(N)N)C(=O)N[C@@H](CCCCN)C(N)=O)C(C)C)C(C)C [DAHRAGLQFPVGRVHRLLRK],MIC,Bacillus subtilis PS832,2 µM
same,MIC,Escherichia coli DL7,16 µM
same,MIC,[9],≥ 32 µM
same,MIC,[10],4 µM
CC[C@H](C)[C@H](NC(=O)CNC(=O)[C@H](CCCN=C(N)N)NC(=O)[C@H](Cc1ccccc1)NC(=O)[C@@H](NC(=O)[C@H](Cc1cnc[nH]1)NC(=O)[C@H](Cc1cnc[nH]1)NC(=O)[C@H](Cc1ccccc1)NC(=O)[C@@H](N)Cc1ccccc1)[C@@H](C)CC)C(=O)N[C@@H](CCCCN)C(=O)N[C@@H](Cc1cnc[nH]1)C(=O)N[C@H](C(=O)NCC(=O)N[C@@H](CCCCN)C(=O)N[C@H](C(=O)N[C@H](C(=O)N[C@@H](Cc1cnc[nH]1)C(=O)N[C@@H](CCCN=C(N)N)C(=O)N[C@@H](CC(C)C)C(=O)N[C@H](C(=O)N[C@H](C(=O)NCC(=O)O)[C@@H](C)O)C(C)C)[C@@H](C)CC)[C@@H](C)O)C(C)C [FFHHIFRGIKHVGKTIHRLVTG],MIC,[11],2 µM
same,MIC,[12],2 µM
same,MIC,[13],2 µM
same,MIC,[14],2 µM
same,MIC,[15],4 µM
same,MIC,[16],2 µM
same,MIC,[17],1 µM
same,MIC,[18],4 µM
same,MIC,[19],4 µM
same,MIC,[20],1 µM
same,MIC,[21],2 µM
same,MIC,[22],2 µM
same,MIC,[23],2 µM
same,MIC,[24],2 µM
same,MIC,[25],2 µM
same,MIC,[26],2 µM
same,MIC,[27],1 µM
same,MIC,[28],2 µM
same,MIC,[29],2 µM
same,MIC,[30],8 µM
same,MIC,[31],4 µM
same,MIC,[32],4 µM
same,MIC,[33],1 µM
same,MIC,[34],8 µM
same,MIC,[35],8 µM
same,MIC,[36],4 µM
same,MIC,[37],4 µM
same,MIC,[38],4 µM
same,MIC,[39],1 µM
same,MIC,[40],2 µM
same,MIC,[41],1 µM
same,MIC,[42],1 µM
